Source: ChEMBL document CHEMBL1201862, “PubChem BioAssay data set” (2004)
Calls of active or inactive are those of the source.

Tests used:
Ion channel NompC = Ion channel NompC (Danio rerio, UniProt Q7T1G6); assay: Dose response cell-based high-throughput screening assay for agonists of the transient receptor potential channel N1 (TRPN1). [Related pubchem assays (depositor defined):AID1424, AID1448]; type: functional
Mucolipin-3 = target: T1, Mucolipin-3 (Homo sapiens, UniProt Q8TDD5); assay: Fluorescence counterscreen assay for […] agonists: dose response cell-based high-throughput screening assay to identify agonists of the transient receptor potential channel ML3 (TRPML3). [Related pubchem assays: 1424, 1448 ]; type: functional
T1 sequence (Q8TDD5 whole entry): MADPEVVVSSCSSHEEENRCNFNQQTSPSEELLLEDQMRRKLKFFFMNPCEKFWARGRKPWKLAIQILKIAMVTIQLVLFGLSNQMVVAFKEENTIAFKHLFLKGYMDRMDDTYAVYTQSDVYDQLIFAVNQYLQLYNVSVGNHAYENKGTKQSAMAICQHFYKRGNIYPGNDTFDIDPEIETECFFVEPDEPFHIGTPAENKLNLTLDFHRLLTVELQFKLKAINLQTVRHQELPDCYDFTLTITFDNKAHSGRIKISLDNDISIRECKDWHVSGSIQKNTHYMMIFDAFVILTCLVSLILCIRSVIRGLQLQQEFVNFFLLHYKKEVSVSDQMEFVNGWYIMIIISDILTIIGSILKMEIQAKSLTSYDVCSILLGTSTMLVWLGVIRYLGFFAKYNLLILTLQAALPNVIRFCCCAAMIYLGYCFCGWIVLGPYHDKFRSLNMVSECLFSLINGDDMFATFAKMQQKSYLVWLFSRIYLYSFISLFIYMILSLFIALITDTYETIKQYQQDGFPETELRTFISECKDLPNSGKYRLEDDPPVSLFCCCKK

[1] = target: T2, G-protein coupled receptor 35 (Homo sapiens, UniProt Q9HC97); assay: SAR analysis of Agonists of the GPR35 Receptor using an Image-Based Assay - Set 3. [Related pubchem assays (depositor defined):AID1961, AID1965]; type: functional
Cannabinoid receptor 2 [2] = target: T3, Cannabinoid receptor 2 (Homo sapiens, UniProt P34972); assay: SAR analysis of antagonists of the Cannabinoid Receptor 2 using an Image-Based Assay - Set 2. [Related pubchem assays (depositor defined):AID1961, AID1965]; type: functional
Cannabinoid receptor 1 [3] = target: T4, Cannabinoid receptor 1 (Homo sapiens, UniProt P21554); assay: SAR analysis of antagonists of the Cannabinoid Receptor 1 using an Image-Based Assay - Set 3. [Related pubchem assays (depositor defined):AID1961, AID1965]; type: functional
[4] = target: G-protein coupled receptor 55 (Homo sapiens, UniProt Q9Y2T6); assay: SAR analysis of selective Agonists of GPR55 using an Image-Based Assay - Set 2. [Related pubchem assays (depositor defined):AID1961, AID1965]; type: functional
Cannabinoid receptor 2 [5] = target: T3, Cannabinoid receptor 2; assay: SAR analysis of agonists of the Cannabinoid Receptor 2 using an Image-Based Assay - Set 2. [Related pubchem assays (depositor defined):AID1961, AID1965]; type: functional
[6] = target: T2, G-protein coupled receptor 35; assay: SAR analysis of Antagonists of the GPR35 Receptor using an Image-Based Assay - Set 4. [Related pubchem assays (depositor defined):[…]]; type: functional
Cannabinoid receptor 1 [7] = target: T4, Cannabinoid receptor 1; assay: SAR analysis of agonists of the Cannabinoid Receptor 1 using an Image-Based Assay - Set 3. [Related pubchem assays (depositor defined):AID1961, AID1965]; type: functional
CAAX prenyl protease 2 = target: T5, CAAX prenyl protease 2 (Homo sapiens, UniProt Q9Y256); assay: inhibition of Ras-converting CAAX protease Rce1 – biochemical, yeast membranes, quenched-peptide fluorescence, cherry-pick, dose response (AID 588849)
T5 sequence (Q9Y256 whole entry): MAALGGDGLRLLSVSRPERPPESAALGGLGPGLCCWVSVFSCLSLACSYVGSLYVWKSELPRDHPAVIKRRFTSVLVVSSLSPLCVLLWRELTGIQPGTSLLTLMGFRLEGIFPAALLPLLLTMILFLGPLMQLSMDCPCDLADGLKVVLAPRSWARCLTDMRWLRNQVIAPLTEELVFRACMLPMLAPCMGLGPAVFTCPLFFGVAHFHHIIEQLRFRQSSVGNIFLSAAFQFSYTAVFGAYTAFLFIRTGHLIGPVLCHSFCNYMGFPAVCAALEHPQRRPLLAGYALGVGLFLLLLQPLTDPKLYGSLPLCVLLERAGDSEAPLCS

CAAX prenyl protease 1 = CAAX prenyl protease 1 (Saccharomyces cerevisiae S288c, UniProt P47154); assay: yeast CAAX protease Ste24 inhibition – biochemical, S. cerevisiae, plate reader, cherry-pick, dose response (AID 488815)
Trypsin = Trypsin (Sus scrofa, UniProt P00761); assay: trypsin protease activity blockade – biochemical, quenched peptide fluorescence, cherry-pick, selectivity assay for Rce1 protease inhibitor project, dose response (AID 488789)
Kallikrein-7 = Kallikrein-7 (Homo sapiens, UniProt P49862); assay: Fluorescence Intensity-based biochemical primary high throughput dose response assay to identify activators of kallikrein-7 (K7) zymogen.
Tumor necrosis factor = Tumor necrosis factor (Homo sapiens, UniProt P01375); assay: analog potency on TNFa NF-kB signaling – cell-based, revised, SAR follow-up (AID 2337); type: functional
HEK293 = assay: cells; conditions: Homo sapiens;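 also: cells exposed to compound for 14 hours overnight before viability readout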
[8] = target: T6, Sentrin-specific protease 7 (Homo sapiens, UniProt Q9BQF6); type: functional;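 also: Luminescence-based dose-response confirmation of ultra-high-throughput screening hits, measuring inhibition of SENP7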
T6 sequence (Q9BQF6 whole entry): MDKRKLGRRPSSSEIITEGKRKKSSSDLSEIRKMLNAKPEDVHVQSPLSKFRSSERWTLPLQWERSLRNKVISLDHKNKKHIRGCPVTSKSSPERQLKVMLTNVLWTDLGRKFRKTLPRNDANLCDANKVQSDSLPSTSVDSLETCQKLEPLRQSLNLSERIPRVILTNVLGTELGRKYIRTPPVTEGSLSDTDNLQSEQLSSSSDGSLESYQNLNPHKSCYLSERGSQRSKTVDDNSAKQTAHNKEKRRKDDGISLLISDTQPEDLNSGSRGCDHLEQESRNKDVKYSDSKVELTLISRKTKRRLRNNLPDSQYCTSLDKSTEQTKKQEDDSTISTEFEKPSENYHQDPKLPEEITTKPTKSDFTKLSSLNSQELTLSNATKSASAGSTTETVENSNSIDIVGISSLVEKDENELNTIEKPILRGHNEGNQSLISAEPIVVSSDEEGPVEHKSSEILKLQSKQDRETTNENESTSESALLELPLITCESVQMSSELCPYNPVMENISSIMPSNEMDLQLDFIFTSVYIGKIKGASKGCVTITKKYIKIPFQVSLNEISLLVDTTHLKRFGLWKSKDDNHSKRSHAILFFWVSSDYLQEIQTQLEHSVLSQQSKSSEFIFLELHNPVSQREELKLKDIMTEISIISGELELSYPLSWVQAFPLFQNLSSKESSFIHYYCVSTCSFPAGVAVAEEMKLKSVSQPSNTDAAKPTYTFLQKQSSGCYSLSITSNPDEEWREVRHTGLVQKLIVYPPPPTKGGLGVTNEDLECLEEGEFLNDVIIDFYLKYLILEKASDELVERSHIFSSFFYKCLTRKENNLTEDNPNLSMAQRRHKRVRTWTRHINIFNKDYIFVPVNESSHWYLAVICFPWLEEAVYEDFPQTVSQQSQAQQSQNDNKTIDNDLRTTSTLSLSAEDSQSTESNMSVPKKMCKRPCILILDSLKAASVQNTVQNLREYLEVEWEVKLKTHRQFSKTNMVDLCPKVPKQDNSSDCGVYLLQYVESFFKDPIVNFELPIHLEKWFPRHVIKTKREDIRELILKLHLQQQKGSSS

Caspase-3 = target: T7, Caspase-3 (Homo sapiens, UniProt P42574); type: functional;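 also: Dose-response selectivity test against caspase-3 for candidate inhibitors of sentrin-specific proteases (SENPs)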
T7 sequence (P42574 whole entry): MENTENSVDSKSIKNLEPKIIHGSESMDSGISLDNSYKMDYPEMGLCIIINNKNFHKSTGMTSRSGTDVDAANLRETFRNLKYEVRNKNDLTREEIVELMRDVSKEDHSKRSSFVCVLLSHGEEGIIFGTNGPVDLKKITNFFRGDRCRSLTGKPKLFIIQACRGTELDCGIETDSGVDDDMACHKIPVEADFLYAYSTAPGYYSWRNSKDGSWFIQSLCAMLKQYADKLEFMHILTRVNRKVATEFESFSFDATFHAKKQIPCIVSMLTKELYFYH

[9] = target: T8, Sentrin-specific protease 6 (Homo sapiens, UniProt Q9GZR1); type: functional;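 also: Luminescence-based dose-response confirmatory assay of SENP6 inhibition, following up an ultra-high-throughput screen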
T8 sequence (Q9GZR1 whole entry): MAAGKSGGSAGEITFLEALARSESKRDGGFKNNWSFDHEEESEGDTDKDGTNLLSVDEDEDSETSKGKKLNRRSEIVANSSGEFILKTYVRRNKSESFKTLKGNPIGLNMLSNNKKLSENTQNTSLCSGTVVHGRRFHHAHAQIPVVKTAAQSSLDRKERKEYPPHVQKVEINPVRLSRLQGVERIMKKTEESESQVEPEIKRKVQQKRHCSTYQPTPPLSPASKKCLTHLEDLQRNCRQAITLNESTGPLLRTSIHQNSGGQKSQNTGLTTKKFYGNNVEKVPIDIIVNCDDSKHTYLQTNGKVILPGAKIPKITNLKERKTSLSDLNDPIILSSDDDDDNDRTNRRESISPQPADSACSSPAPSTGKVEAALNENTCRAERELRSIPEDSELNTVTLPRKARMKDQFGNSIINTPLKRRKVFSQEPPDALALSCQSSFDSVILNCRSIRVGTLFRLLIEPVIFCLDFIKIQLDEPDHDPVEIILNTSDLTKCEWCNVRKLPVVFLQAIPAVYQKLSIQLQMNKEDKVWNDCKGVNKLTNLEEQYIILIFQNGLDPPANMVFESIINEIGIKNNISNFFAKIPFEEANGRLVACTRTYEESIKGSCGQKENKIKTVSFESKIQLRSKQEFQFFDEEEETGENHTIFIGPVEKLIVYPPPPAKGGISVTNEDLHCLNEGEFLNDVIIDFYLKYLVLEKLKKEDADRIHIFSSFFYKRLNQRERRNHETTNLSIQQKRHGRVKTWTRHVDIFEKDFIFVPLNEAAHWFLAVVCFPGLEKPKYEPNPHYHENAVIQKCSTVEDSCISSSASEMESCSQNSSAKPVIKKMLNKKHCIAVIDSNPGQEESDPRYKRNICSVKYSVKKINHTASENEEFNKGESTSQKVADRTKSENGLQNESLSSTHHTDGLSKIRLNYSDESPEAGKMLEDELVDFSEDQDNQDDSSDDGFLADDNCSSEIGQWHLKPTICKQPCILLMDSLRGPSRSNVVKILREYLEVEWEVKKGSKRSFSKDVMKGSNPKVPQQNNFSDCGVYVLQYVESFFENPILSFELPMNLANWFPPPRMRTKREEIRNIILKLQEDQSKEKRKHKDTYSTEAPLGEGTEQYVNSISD

[10] = target: T9, Sentrin-specific protease 8 (Homo sapiens, UniProt Q96LD8); type: functional;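 also: luminescence read-out of SENP8 inhibition, dose-response confirmation following an ultra-high-throughput screen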
T9 sequence (Q96LD8 whole entry): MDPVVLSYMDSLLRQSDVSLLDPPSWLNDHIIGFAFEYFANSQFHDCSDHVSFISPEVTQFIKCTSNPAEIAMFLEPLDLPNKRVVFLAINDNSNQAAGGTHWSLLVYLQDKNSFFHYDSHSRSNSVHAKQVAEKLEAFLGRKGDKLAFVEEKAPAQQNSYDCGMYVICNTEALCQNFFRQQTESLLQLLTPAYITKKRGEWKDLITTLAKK

Large T antigen = Large T antigen (Simian virus 40, UniProt P03070); type: functional, Betapolyomavirus macacae;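 also: Confirmatory-stage PubChem screen for compounds that inhibit SV40 T antigen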
Chain of Large T antigen (P03070 whole entry): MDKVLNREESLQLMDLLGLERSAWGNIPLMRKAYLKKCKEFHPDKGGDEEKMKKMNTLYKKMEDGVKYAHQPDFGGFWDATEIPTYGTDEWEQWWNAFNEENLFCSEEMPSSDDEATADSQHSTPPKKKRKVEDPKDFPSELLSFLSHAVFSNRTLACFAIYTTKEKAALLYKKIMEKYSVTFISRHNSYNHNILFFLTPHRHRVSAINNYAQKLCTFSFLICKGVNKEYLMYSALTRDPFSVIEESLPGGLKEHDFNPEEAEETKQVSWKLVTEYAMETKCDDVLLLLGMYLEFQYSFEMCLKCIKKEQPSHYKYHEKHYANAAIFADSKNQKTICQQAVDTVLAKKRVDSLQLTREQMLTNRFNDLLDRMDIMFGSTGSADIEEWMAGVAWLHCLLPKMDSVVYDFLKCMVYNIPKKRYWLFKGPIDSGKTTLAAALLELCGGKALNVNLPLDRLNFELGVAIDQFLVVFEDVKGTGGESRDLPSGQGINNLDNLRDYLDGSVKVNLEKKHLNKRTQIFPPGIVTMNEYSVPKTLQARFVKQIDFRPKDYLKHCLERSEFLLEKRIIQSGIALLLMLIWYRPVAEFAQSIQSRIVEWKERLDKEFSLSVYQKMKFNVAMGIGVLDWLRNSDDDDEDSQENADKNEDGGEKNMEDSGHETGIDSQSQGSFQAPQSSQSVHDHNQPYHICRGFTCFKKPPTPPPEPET

T2 sequence (Q9HC97 whole entry): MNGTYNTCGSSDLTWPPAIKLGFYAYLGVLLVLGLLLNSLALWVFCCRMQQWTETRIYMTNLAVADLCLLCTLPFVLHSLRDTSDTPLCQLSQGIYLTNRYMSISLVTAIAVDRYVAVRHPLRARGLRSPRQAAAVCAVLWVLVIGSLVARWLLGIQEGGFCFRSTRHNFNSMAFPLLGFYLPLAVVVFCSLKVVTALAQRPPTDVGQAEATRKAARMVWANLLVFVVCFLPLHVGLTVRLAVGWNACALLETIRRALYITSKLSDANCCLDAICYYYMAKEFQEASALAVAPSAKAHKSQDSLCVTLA
T4 sequence (P21554 whole entry): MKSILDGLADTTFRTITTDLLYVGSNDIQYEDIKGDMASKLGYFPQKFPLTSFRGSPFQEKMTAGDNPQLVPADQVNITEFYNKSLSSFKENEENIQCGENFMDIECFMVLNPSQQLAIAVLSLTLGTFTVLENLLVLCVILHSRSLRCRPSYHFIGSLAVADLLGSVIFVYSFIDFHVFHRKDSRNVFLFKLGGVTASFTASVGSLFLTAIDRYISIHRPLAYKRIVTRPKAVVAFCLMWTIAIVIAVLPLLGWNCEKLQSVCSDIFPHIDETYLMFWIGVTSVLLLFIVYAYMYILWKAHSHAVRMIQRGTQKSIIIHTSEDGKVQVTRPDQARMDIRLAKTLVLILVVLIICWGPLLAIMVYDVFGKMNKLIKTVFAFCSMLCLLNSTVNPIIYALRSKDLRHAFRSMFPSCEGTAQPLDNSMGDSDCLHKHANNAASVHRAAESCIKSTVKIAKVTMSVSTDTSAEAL
T3 sequence (P34972 whole entry): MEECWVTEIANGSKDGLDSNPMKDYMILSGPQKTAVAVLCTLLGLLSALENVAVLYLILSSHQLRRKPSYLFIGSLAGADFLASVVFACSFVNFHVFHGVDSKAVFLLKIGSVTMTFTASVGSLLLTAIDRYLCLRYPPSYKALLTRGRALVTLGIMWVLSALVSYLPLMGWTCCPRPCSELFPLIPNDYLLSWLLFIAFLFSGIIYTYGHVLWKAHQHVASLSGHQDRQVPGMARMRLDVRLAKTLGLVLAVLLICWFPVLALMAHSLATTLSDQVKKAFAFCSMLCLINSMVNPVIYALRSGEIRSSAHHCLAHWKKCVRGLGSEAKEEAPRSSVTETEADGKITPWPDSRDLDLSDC
Chain of CAAX prenyl protease 1 (P47154 whole entry): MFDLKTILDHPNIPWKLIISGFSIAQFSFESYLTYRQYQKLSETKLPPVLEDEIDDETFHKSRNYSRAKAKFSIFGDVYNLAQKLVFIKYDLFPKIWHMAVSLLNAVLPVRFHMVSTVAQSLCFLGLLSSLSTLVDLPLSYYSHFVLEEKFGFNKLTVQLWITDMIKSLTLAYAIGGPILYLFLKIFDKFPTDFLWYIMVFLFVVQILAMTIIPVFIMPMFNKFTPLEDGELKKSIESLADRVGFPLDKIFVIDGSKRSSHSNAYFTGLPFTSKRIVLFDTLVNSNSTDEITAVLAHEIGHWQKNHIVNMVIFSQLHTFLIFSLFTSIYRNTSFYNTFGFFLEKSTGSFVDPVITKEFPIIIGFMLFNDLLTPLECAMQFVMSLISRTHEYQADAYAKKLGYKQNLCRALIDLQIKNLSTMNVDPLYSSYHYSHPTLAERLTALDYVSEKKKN
Chain of Trypsin (P00761 whole entry): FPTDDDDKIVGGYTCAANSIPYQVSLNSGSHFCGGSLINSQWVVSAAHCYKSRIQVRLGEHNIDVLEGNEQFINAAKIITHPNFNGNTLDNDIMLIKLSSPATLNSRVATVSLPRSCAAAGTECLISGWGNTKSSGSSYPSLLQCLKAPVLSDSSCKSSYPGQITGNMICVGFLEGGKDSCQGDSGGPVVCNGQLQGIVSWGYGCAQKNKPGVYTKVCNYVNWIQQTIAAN
Chain of G-protein coupled receptor 55 (Q9Y2T6 whole entry): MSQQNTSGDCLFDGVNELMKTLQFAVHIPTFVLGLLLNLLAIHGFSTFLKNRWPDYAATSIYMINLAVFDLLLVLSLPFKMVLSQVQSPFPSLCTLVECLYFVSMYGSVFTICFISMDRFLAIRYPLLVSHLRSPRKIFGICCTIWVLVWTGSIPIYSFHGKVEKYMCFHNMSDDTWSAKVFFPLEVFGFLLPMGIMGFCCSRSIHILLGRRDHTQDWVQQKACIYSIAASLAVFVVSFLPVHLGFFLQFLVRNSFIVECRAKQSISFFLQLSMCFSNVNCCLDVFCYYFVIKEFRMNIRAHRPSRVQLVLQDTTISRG
Chain of Kallikrein-7 (P49862 whole entry): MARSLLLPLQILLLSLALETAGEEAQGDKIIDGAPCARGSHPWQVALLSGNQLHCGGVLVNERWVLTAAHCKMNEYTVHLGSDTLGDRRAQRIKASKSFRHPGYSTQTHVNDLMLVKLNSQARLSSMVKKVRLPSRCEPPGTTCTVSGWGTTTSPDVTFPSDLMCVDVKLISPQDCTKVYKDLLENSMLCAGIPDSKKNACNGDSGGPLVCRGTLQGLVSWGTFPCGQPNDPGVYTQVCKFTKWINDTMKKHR
Chain of Ion channel NompC (Q7T1G6 whole entry): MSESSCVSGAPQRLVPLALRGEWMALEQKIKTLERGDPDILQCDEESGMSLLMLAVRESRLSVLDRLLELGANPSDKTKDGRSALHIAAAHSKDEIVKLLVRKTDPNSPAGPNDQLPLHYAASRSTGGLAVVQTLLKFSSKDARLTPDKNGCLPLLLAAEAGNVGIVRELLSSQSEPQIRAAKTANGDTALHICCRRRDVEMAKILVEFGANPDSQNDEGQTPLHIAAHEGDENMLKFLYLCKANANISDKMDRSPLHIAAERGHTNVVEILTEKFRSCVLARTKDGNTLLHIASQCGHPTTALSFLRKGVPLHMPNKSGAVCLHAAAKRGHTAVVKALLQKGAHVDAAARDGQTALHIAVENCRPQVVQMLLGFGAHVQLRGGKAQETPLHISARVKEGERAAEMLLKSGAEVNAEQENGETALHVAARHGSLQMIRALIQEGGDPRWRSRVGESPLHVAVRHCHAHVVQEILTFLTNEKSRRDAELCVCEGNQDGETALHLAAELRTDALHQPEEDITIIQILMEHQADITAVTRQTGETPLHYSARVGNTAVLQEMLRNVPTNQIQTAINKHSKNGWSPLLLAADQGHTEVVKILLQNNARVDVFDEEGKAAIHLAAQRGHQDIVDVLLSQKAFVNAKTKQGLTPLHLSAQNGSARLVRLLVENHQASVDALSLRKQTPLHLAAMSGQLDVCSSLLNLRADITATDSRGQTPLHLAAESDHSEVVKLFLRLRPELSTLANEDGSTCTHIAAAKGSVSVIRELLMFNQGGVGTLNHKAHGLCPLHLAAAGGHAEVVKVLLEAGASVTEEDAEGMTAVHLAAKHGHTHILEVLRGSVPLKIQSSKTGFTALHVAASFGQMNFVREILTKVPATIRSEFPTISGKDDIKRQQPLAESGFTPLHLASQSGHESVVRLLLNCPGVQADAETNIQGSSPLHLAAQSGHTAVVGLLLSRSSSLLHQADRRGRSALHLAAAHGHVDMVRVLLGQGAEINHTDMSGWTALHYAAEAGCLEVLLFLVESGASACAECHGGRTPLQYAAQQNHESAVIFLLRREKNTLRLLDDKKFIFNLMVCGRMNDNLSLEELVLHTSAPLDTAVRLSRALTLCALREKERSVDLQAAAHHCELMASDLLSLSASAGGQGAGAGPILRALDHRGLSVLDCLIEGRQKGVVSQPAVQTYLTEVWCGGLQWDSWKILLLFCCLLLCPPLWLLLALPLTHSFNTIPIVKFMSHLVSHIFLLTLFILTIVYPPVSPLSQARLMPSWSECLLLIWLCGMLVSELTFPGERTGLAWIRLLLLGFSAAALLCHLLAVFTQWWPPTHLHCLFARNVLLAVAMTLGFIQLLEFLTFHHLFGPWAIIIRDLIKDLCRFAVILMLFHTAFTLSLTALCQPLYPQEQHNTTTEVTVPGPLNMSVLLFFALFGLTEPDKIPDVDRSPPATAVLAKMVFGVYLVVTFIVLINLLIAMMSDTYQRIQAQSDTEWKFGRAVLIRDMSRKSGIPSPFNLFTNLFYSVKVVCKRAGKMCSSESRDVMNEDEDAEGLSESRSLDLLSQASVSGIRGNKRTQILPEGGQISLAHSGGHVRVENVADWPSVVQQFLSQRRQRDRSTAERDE
Chain of Tumor necrosis factor (P01375 whole entry): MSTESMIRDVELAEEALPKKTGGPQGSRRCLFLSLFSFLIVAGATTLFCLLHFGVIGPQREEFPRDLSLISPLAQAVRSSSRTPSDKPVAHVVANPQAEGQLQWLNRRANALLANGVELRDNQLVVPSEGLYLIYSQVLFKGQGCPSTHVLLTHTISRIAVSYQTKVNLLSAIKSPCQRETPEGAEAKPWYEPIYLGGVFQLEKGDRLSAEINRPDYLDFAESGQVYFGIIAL

Compound | EC50 [1] | IC50 (Cannabinoid receptor 2 [2]) | IC50 (Cannabinoid receptor 1 [3]) | EC50 [4] | EC50 (Cannabinoid receptor 2 [5]) | IC50 [6] | EC50 (Cannabinoid receptor 1 [7]) | AC50 (CAAX prenyl protease 2) | AC50 (CAAX prenyl protease 1) | AC50 (Trypsin) | also measured
Cc1ccc(NS(=O)(=O)c2ccc(C(=O)OCC(=O)Nc3cc(C)on3)cc2)cc1 |  |  |  |  |  |  |  |  |  |  | EC50 (Ion channel NompC): > 29.9 µM (inactive); EC50 (Mucolipin-3): > 29.9 µM (not active)
CCOc1ccc(S(=O)(=O)N2CCOCC2)cc1NC(=O)c1ccc(N2CCCC2=O)cc1 | > 32 µM (inactive) | > 32 µM (inactive) | 4.98 µM (active) | > 32 µM (inactive) | > 32 µM (inactive) | > 32 µM (inactive) | > 32 µM (inactive) |  |  |  | 
CCC(C)NC(=O)c1cc2c(=O)n3cccc(C)c3nc2s1 (stereo not given) |  |  |  |  |  |  |  | 6.01 µM (active) | 1.72 µM (active) | 28.5 µM (active) | EC50 (Kallikrein-7): > 69.6 µM (inactive)
CC(=O)N1CCc2cc(S(=O)(=O)N3CCN(c4ccc([N+](=O)[O-])cc4)CC3)ccc21 |  |  |  |  |  |  |  |  |  |  | IC50 (Tumor necrosis factor): > 20 µM (inactive); IC50 (HEK293): > 20 µM (inactive)
O=C(Nc1cc(S(=O)(=O)N2CCOCC2)ccc1OCC(F)(F)F)c1ccc(N2CCCC2=O)cc1 | > 32 µM (inactive) | > 32 µM (inactive) | > 32 µM (inactive) | > 32 µM (inactive) | > 32 µM (inactive) | > 32 µM (inactive) | > 32 µM (inactive) |  |  |  | 
Oc1ccc(-c2nc3ccccn3c2NCc2ccco2)cc1 |  |  |  |  |  |  |  | 6.52 µM (active) | 4.39 µM (active) | 10.8 µM (active) | IC50 [8]: 16 µM (active); IC50 (Caspase-3): 17.6 µM (active); IC50 [9]: 54.4 µM (active); IC50 [10]: 81.9 µM (active); IC50 (Large T antigen): 11.4 µM (active)
